Values joined by “and” are separate entries in the source; they are usually repeats but may differ in a detail not shown here. Equal entries are not always repeated.
Key:
[1] = Solubility of MSLs in water
Source text: If the material precipitates upon cooling or was to some extent insoluble, the insoluble material was separated by filtration, dried and weighed.

[2] = Emulsion type: dilution test and oil soluble dye staining; assay type: physicochemical; conditions: 2%-by-weight relative to water phase, oil/water 5/5 and 7/3
Procedure: In this test the emulsion is diluted either with oil (O) or water (W). If the emulsion is O/W type and it is diluted with water, it will remain stable as water is the dispersion medium. However, if the emulsion is O/W type and it is diluted with oil, the emulsion will break as oil and water are not miscible with each other. […] Emulsions of the O/W type have separated layers after dilution with pure oil but form a homogenous phase when diluted by water. Unless otherwise specified, the emulsion type formed by MSLs were oil in water.
In FIG. 13B, the tube on the left was diluted with 1 mL of oil whereas the tube on right was diluted with water. Visual observation of the tubes in FIG. 13B supports that the emulsions formed are indeed O/W emulsions.
Oil Red O was applied as an oil soluble dye and emerald green as water soluble dye in the process of emulsion preparation. Observations of emulsions were made before and after staining under optical microscope at 400× magnification (FIG. 14). […] The formation of O/W emulsions and not W/O emulsions with this set of MSL compounds would not be obvious to one skilled in the art. We believe that O/W emulsions are formed by this set of MSLs due to that large sophorose polar head groups requires relatively more space than the lipid tails and, therefore self-assemble into spherical type structures where disaccharide groups are locating outside the droplets.

[3] = Emulsion stability based on phase separation; assay type: physicochemical; conditions: for emulsion layer volume-%, one month / emulsion layer volume-%, start: oil/water 5/5, 2%-by-weight; for emulsion layer volume-%, one month: one month at room temperature; for emulsion layer volume-%, start / emulsion layer, start: start of aging; for emulsion phase, one month / emulsion layer, start: oil/water 7/3, 2%-by-weight; for emulsion phase, one month: one month aging; for emulsion layer percentage: paraffin oil/water 5/5, 2%-by-weight emulsifier, after 24 hours at 25° C.
Procedure: The emulsion was obtained by homogenizing the oil and water mixture and was allowed to settle at room temperature for 24 hours. […] Then, this mixture was homogenized at 13,000 rpm for 2 minutes. Thereafter, the resulting emulsion was left unagitated at 25° C. for 24 hours. Surfactants which give a larger emulsion phase are denoted as having higher emulsion effectiveness (Process Safety and Environment protection, 2005, 83, 38-46). […] Thus, unexpectedly, that longer alkyl chains, at least up to butyl and hexyl, provided improved interfacial stability at the paraffin oil/water interface. […] Apparently, ester bonds of SL-esters are less disruptive to organization at the oil water interface than amide bonds of SL-amides. […] The acidic SL (3) gave an 8% emulsion layer, much lower than the MSL examples given herein. Similarly, the natural SL (1) mixture gave a 10% emulsion layer. This performance is also far below that of SL-butyl amide (24), hexyl amide (25), butyl ester (8) and hexyl ester (16).
After homogenized at 13,000 rpm for 2 minutes, the emulsions were kept at room temperature and separation of the respective oil, emulsion and water layers was recorded for up to 1 month.

[4] = Emulsion droplet size distribution, Coulter LS 230 analyzer; assay type: physicochemical; conditions: paraffin oil-to-water 7:3 v/v, 25° C.
Procedure: Emulsified oil droplet size (average and standard deviation) was measured after suitable dilution of the emulsion phase using a Coulter LS 230 analyzer. […] Relative to natural and lactonic SL, selected MSLs show improved properties as emulsifiers on paraffin oil.
After being aged for 3-months, emulsified oil droplet size (average and standard deviation) was measured after suitable dilution of the emulsion phase using a Coulter LS 230 analyzer and the results are listed in Table 5. […] However, increasing the surfactant concentration from 1 to 2% did result in substantially smaller emulsion-phase droplet sizes. […] This is evidence that MSL's can stabilize oil phases greatly decreasing their tendency to undergo coalescence. […] It follows that the results of 3-month aging studies support the utility of selected MSLs for formation and stabilization of oil-in-water emulsions of paraffin oil phases. One skilled in the art would expect that the ability of these MSLs to stabilize paraffin oil phases teaches that they would also stabilize oil phases of similar structure.

[5] = Emulsion viscosity measurement; assay type: physicochemical
Procedure: Viscosity was measured at 25° C. with increasing shear rate from 1 S^−1 to 750 S^−1. The viscosity change was monitored for aging times up to 3 months. For all samples, the paraffin oil/water ratio is 7/3 and the surfactant concentrations studied were 0.5%, 1% to 2%-by-weight relative to the oil phase. FIG. 19 presents the viscosity change with shear rate for different aging times. […] The emulsion tested was prepared using 2%-by-weight SL-butyl ester relative to paraffin oil. Viscosity decreases with increased shear rate implying the emulsion follows shear shinning. Furthermore, viscosity decreased with increased storage time. […] This change is consistent with the small increase in oil phase particle size (1.7 to 2.1 μm) with aging from 1 day to 3-months (Tables 4 and 5).
Values of ηlow decreased with storage time to various extents that are dependent on the MSL compound used to stabilize the emulsion. […] The relative ability of different MSL structures to stabilize emulsions and thereby decrease the extent of decrease in viscosity as a function of aging time would not be predictable by one skilled in the art. The behavior as a function of MSL structure is related to emulsion dispersed phase droplet size. That is, the smaller the change in droplet size, the less decrease in emulsion viscosity occurs with increased aging time. Smaller changes in droplet size reflects the ability of the emulsifier to better stabilize particles. For example, the viscosity of the emulsion stabilized by SL-butyl amide decreased by 65% (from 344 Pas to 120 Pas) whereas the viscosity of the emulsion stabilized by SL-hexyl ester decreased by 20% (from 457 Pas to […]).
The viscosity was measured 24 hours after emulsion preparation. The viscosity increased with increasing surfactant concentration. Such behavior could not have been predicted by one skilled in the art without the teaching provided in this disclosure. The extent of viscosity change with surfactant concentration is related to the interfacial free energy at the droplet surface that reduces with the increase of surfactant concentration.

[6] = SL-esters; from earlier publication in Colloids and surfaces, 2004, 240, 75; cited from earlier work
[7] = oil/water 7/3, 2%-by-weight relative to paraffin oil, 25° C.
[8] = oil/water 7/3, 1% MSL, shear rate 1 S^−1

Structure (SMILES)	Solubility [1]	emulsion type by Oil Red O staining [2]	emulsion layer volume-%, one month [3]	emulsion layer volume-%, start [3]	emulsion phase, one month [3]	emulsion layer, start [3]	emulsion layer percentage [3]	Average droplet size ([4]; 0.5 weight %, 24 hours)	Average droplet size ([4]; 0.5 weight %, aged 3-months)	Average droplet size ([4]; 1 weight %, 24 hours)	Average droplet size ([4]; 1 weight %, aged 3-months)	Average droplet size ([4]; 2 weight %, 24 hours)	Average droplet size ([4]; 2 weight %, aged 3-months)	CMC Range [6]	MST (minimum surface tension) [6]	other results
CCCCOC(=O)CCCCCCCC=CCCCCCCC(C)OC1OC(CO)C(O)C(O)C1OC1OC(CO)C(O)C(O)C1O (stereo not drawn) [Compound 8, SL-Butyl Ester]	<3000 µg/mL	O/W	50%	65%	90%	95%	55%	2.5 ± 0.3 μm	3.5 ± 0.4 μm	2.4 ± 0.3 μm	3.1 ± 0.5 μm	1.7 μm and 1.7 ± 0.1 μm	2.1 μm and 2.1 ± 0.4 μm	7-9 10^−6M	34.5 mN/m	emulsion viscosity at shear rate 1S^−1, after 3 months [5, 7]: 376 Pas; emulsion viscosity at shear rate 1S^−1, before aging [5, 7]: 465 Pas; viscosity decrease after 3 months ([5]; oil/water 7/3, 2%-by-weight, shear rate 1S^−1): 19.1%
CCCCCCOC(=O)CCCCCCCC=CCCCCCCC(C)OC1OC(CO)C(O)C(O)C1OC1OC(CO)C(O)C(O)C1O (stereo not drawn) [Compound 16, SL-Hexyl Ester]	<5000 µg/mL	O/W	65%	70%	85%	95%	65%	2.3 ± 0.4 μm	2.9 ± 0.2 μm	2.1 ± 0.3 μm	2.5 ± 0.1 μm	1.7 ± 0.2 μm	1.9 ± 0.1 μm	3-4 10^−6M	34.0 mN/m	low shear emulsion viscosity, after aging period [5, 8]: 459 Pas; low shear emulsion viscosity, before aging [5, 8]: 457 Pas; viscosity decrease over the aging period [5, 8]: 20%
